Test results reported in patent US20190127797A1, “BIOMARKERS FOR THE DIAGNOSIS OF INFLAMMATION-RELATED DISEASES” (UNIVERSITE DE BORDEAUX, priority 2016, published 2019).

Legend:
Type in all cases: cell-based, human
NLRC4 = NLRC4 expression by qPCR in primary monocytes; conditions: 100 μM, 6 hours, GAPDH-standardized, ratio relative to control
Procedure: (§1) FIG. 3. High levels of oxidative stress and increased nucleotide metabolites in IMH individuals can induce cytokine production and expression of inflammasome genes in primary monocytes. Broad-coverage metabolomics profiling was conducted on available serum samples from year 2011 (9 IML and 11 IMH individuals). […] Functional annotation and pathway analysis was conducted using MetPA. A significant enrichment for several metabolic pathways was identified for these metabolites (P<0.05) (a). Conversion of cysteine to cystine; and from arachidonic acid to 8-isoprostane, in the presence of ROS (b). Increased circulating levels of cystine and 8-isoprostane in IMH (b and c) indicate higher levels of oxidative stress (c and d). Adenine, DL-4-hydroxy-3-methoxymandelic acid (vanillylmandelate) (MMA), scyllo-inositol and N4-acetylcytidine (N4A) were selected based on their levels of significance (Q<0.001, see Table 5) and representing different metabolic pathways, to assess their ability to induce IL1FC and expression of NLRC4 in primary monocytes from four healthy donors (shown are the results of one representative experiment). Adenosine was used as a positive control. A significant induction of IL1FC is observed for adenosine and adenine, but not with other compounds (e). The highest dose of each compound (100 μM) was used to determine expression of NLRC4 and NLRP3 by qPCR on the same samples used for cytokine determination (e). […] As previously shown in mice, adenosine treatment up-regulates NLRP3 gene expression (P<0.01) (f). Expression of GAPDH was used to standardize the samples, and the results are expressed as a ratio relative to control. Error bars reflect experimental variability.
(§2) The dysfunction in nucleotide metabolism and in mitochondrial bioenergetics described above may explain the generation of circulating metabolites and chronic oxidative stress, respectively. To study whether the circulating metabolites found in higher levels in the sera from IMH compared to IML subjects up-regulate NLRC4 gene expression and/or cytokine production, four candidate compounds identified from our analysis were selected. They represent distinct metabolic pathways. These included adenine (purine metabolism), DL-4-hydroxy-3-methoxymandelic acid (vanillylmandelate) (phenylalanine and tyrosine metabolism), scyllo-inositol (inositol metabolism) and N4-acetylcytidine (N4A) (pyrimidine metabolism) (Table 5). Adenosine was included as a positive control for IL1FC production. Primary monocytes from four healthy donors were isolated from fresh […] blood and incubated with increasing concentrations of the indicated compounds for 6 hours. […] We also tested whether these stimulations lead to changes in the expression of NLRC4 and NLRP3 (used as a positive control for adenosine stimulation). […] More biochemical studies are necessary to address this.
(§3) Adenosine, adenine, DL-4-hydroxy-3-methoxymandelic acid, scyllo-inositol were all purchased form Sigma (Sigma-Aldrich, St. Louis, Mo.) and N4-acetylcytidine was purchased from Santa Cruz Biotechnology (Dallas, Tex.). Compounds were tested at the indicated concentrations on isolated monocytes from a healthy donor. […] Samples were then transferred to the Human Immune Monitoring Core at Stanford for quantification of cytokines, chemokines and growth factors using the 63-plex Luminex system, as described above. […]

NLRP3 = NLRP3 expression by qPCR in primary monocytes; conditions: 100 μM, 6 hours, GAPDH-standardized, ratio relative to control
Procedure: as §1, §2, §3

[1] = system: differentiated THP-1 cells; assay: Cytokine secretion (ELISA) from differentiated THP-1 cells; conditions: 6 hr; for production of IL-1β / production of IL-18 / production of TNF-α: without ATP pulse
Procedure: FIG. 4. N4-Acetylcytidine and Adenine induce the NLRC4 inflammasome. (a) Differentiated THP-1 cells were treated with ATP (5 mM, 30 min), or primed with LPS (1 μg/ml, 4 hr) and then pulsed with ATP; or treated with indicated concentrations (mM) of Adenine (Ad) or N4-Acetylcytidine (N4A) alone for 6 hr or (b) in combination, and then pulsed or not with ATP. Secretion of cytokines IL-1β, IL-18 and TNF-α were measured by ELISA from cell culture supernatants. (c) Differentiated THP-1 cells were treated with compounds as indicated (1 mM N4A; 300 μM Ad) for 6 hr or ATP 5 mM 30 min, cells were lysed and cell lysates were then immunoblotted with various antibodies to monitor expression of NLRs, Casp1, and prolL-1β. (d) Differentiated THP-1 cells were treated with compounds as before and cell lysates were submitted to immunoprecipitation with Biotinyl-YVAD-fmk peptide. Complexes were then recovered by using Streptavidin-sepharose beads and immunoblotted with anti-Caspase-1 p10 antibody. (e) Differentiated THP-1 cells were treated with compounds as before in the presence or not of Ac-YVAD-fmk or control DMSO, and IL-1β secretion was measured. (f) Differentiated WT or stable shTHP-1 cell lines were treated with compounds as before (1 mM N4A; 300 μM Ad) and IL-1β secretion was measured. To the right, western-blots showing protein expression of NLRC4 in stable shTHP-1 cell lines. (g) Bone marrow-derived macrophages from WT or KO mice as indicated were isolated and treated with combination of compounds (1 mM N4A; 300 μM Ad), and IL-1β secretion was measured. Data are expressed as concentration of cytokines (pg/ml) (mean±SD; n=3). * P<0.05, ** P<0.01.
In parallel experiments, differentiated THP-1 cells and a human monocytic cell Line were treated to address whether the metabolites N4A and adenine, alone or in combination, could induce inflammasome activation and cytokine secretion in vitro.
Adult male mice (12-18 week old) were divided into two groups: PBS or compound treated-mice (N4-Acetylcytidine+Adenine dissolved in PBS). Compound-treated mice were injected with N4-Acetylcytidine and Adenine (stock solution 20 mM each, 100 ul/25 g body weight, retro-orbital injection, once daily) or PBS. After 3 weeks of treatment, while they continued receiving daily injections of PBS or N4A+Adenine, mice from both groups were administered an infusion of human angiotensin II (AngII, #A9525, Sigma-Aldrich, St. Louis, Mo.) for another 2 weeks. Angll (140 ng/kg per min) was dissolved in 100 ul 20 mM (N4A+Adenine) or in 100 ul PBS and loaded into a small osmotic pump (Durect Corporation, Cupertino, Calif., USA). The osmotic pump was then implanted subcutaneously on the dorsal side around the neck of mice under anesthesia ([…]). Systolic blood pressure was measured every other day in conscious mice using tail-cuff plethysmography (Vistech System BP-2000, Apex, N.C., USA). Experiments with human THP-1 cells and primary blood platelets THP-1 monocytic cell lines were cultured in 6-well plates in RPMI media (supplemented with 10% Fetal Bovine Serum) and differentiated overnight with TPA (10 ng/ml). The day after, adherent cells were washed with fresh media and treated with agonists LPS ([…], 4 hrs) and ATP (5 mM, 30 min) or compounds Adenine/N4-Acetylcytidine at various concentrations.

primary neutrophils = assay: Primary neutrophil activation (RANKL, degranulation, IL-1β secretion); conditions: 24 hr, various concentrations
Procedure: (b) Primary neutrophils were isolated from blood of healthy donors and incubated for 24 hr with various concentrations of adenine or N4A alone or in combination, and RANK-L+ cells were determined within the CD66b+ population. (c) Primary neutrophils were treated with N4A (1 mM) and/or adenine (1 mM) and the % of degranulated population was measured for each donor. (d) Primary neutrophils were treated as before with compounds as indicated and IL-1β secretion was measured from cell culture supernatants for each donor. Data are expressed as concentration of cytokines (pg/ml), or as fold increase with respect to non-treated (NT) condition as indicated. * P<0.05, ** P<0.01
In addition, the frequencies of 22 different cell subsets in IMH and IML older adults (N=22) were estimated and in a separate analysis, such frequencies were compared between young and older adults (N=86). For these analyses Cibersort (Newman et al. Robust enumeration of cell subsets from tissue expression profiles. Nature Methods 12, 453-457, 2015) was used, which uses gene expression profiles to characterize cell subset composition in complex tissues, such as whole blood. Significant differences were found in the estimated frequencies of circulating mast cells, as well as in the CD4 T regulatory cell compartment between young and older adults (P<0.01). […]

primary monocytes = assay: IL1FC (IL-1α, IL-1β) production in primary monocytes treated with metabolites; conditions: primary monocytes from four healthy donors, increasing concentrations, 6 hours
Procedure: as §1
The dysfunction in nucleotide metabolism and in mitochondrial bioenergetics described above may explain the generation of circulating metabolites and chronic oxidative stress, respectively. To study whether the circulating metabolites found in higher levels in the sera from IMH compared to IML subjects up-regulate NLRC4 gene expression and/or cytokine production, four candidate compounds identified from our analysis were selected. They represent distinct metabolic pathways. […]
Adenosine, adenine, DL-4-hydroxy-3-methoxymandelic acid, scyllo-inositol were all purchased form Sigma (Sigma-Aldrich, St. Louis, Mo.) and N4-acetylcytidine was purchased from Santa Cruz Biotechnology (Dallas, Tex.). […] Samples were then transferred to the Human Immune Monitoring Core at Stanford for quantification of cytokines, chemokines and growth factors using the 63-plex Luminex system, as described above. […]

primary platelets = assay: Platelet activation, CD61/CD62P membrane expression by flow cytometry; conditions: platelets of two healthy donors, 6 hrs at 37° C., various concentrations, CD61 and CD62P+
Procedure: Primary platelets were isolated from the blood of two donors and incubated for 6 hr at 37° C. with thrombin, or ADP, or various concentrations of Adenine or N4-Acetylcytidine. Platelet activation was monitored by measuring membrane expression of CD61 and CD62P by flow cytometry. Data are representative of at least three independent experiments with similar results. […] Thus, it was sought to determine whether [MUT] and adenine were able to activate human platelets in vitro. To do so, platelets were isolated from the blood of two healthy donors and incubated for 6 hrs at 37° C. with various concentrations of adenine or [MUT]. Thrombin, and ADP were used as controls and platelet activation was monitored by measuring membrane expression of CD61 and CD62P+ cells by flow cytometry. […] Human primary platelets were prepared from whole blood using a venepuncture in EDTA tube after a 20 min centrifugation at 1000 rpm without acceleration and break. Then the supernatant was harvested and 1 μM PGE1 was added. […] Platelets were then stimulated with thrombin (at 0.5 U/ml), ADP, or with the indicated concentrations of [MUT] or adenine, and activation was monitored by flow cytometry using 25 immunostaining of membrane markers with anti-CD61 (marker of platelet population), and anti-CD62-P (marker of activation involved in aggregation).

[2] = then pulsed with ATP (5 mM, 30 min)

| Compound | expression of NLRC4 (NLRC4) | expression of NLRP3 (NLRP3) | secretion of IL-1β [1, 2] | secretion of IL-18 [1, 2] | production of IL-1β [1] | production of IL-18 [1] | production of TNF-α [1] | RANKL+ cells within the CD66b population (primary neutrophils) | IL-1α production (primary monocytes) | IL-1β production (primary monocytes) | percentage of activated platelets (primary platelets) |
| --- | --- | --- | --- | --- | --- | --- | --- | --- | --- | --- | --- |
| COc1cc(C(O)C(=O)O)ccc1O (racemic) [DL-4-hydroxy-3-methoxymandelic acid] | No effect | No effect | – | – | – | – | – | – | – | – | – |
| CC(=O)Nc1ccn([C@@H]2O[C@H](CO)[C@@H](O)[C@H]2O)c(=O)n1 [N4A, N4-acetylcytidine] | induced both NLRP3 and NLRC4 | induced both NLRP3 and NLRC4 | potently induced secretion | potently induced secretion | neither incubation with adenine nor with N4A alone had an effect | neither incubation with adenine nor with N4A alone had an effect | neither incubation with adenine nor with N4A alone had an effect | – | – | – | – |
| Nc1ncnc2[nH]cnc12 [adenine] | No effect | No effect | – | – | neither incubation with adenine nor with N4A alone had an effect | neither incubation with adenine nor with N4A alone had an effect | neither incubation with adenine nor with N4A alone had an effect | induced a potent increase | significant increase | significant increase | robustly induced a dose-dependent increase |
| Nc1ncnc2c1ncn2[C@@H]1O[C@H](CO)[C@@H](O)[C@H]1O [adenosine, reference compound] | no increase in NLRC4 was observed | increased expression of NLRP3 | – | – | – | – | – | – | significant increase | significant increase | – |
| O[C@H]1[C@H](O)[C@@H](O)[C@H](O)[C@@H](O)[C@@H]1O [scyllo-inositol] | No effect | No effect | – | – | – | – | – | – | – | – | – |
